Test: xn = mol fraction of the nth substance listed
Conditions: 101 kPa

CCCC[n+]1ccn(C)c1.F[B-](F)(F)F + O
viscosity [mPa·s]
Conditions	293.15 K	298.15 K	303.15 K	313.15 K	323.15 K	333.15 K	343.15 K	353.15 K	363.15 K	373.15 K
x2 = 0	133.5	–	78.8	50.52	34.52	–	18.69	14.54	11.64	–
x2 = 0.034	–	88.8	69.8	45.58	31.56	22.98	17.44	13.67	–	9.06
x2 = 0.0615	–	–	–	41.37	–	21.4	16.34	12.87	–	–
x2 = 0.1135	81.4	–	51.7	–	25.01	–	14.45	–	9.39	7.83
x2 = 0.2063	56.3	45.4	37.2	26.09	19.17	14.66	11.59	9.4	7.79	6.6
x2 = 0.2802	42	34.4	28.7	20.59	15.49	12.06	9.64	7.91	–	5.71
x2 = 0.3977	–	–	19	14.1	10.89	8.67	7.11	–	5.16	4.54

— a compilation of properties of binary mixtures (doi:10.1016/j.molliq.2016.08.084)
